For series [1], the system named is gerbils. In words: Working memory and reference memory assay (modified radial arm maze) in gerbils. To be noted: 0.1% UMP diet, four weeks. The class given is in vivo, gerbil. The text has this: Groups of ten gerbils fed control or 0.1% UMP diet for four weeks and trained to successfully find all of the food pellets as described above were then given a modified test, in which only two arms of the maze (but always the same two) contained food pellet rewards. In this test, a working memory error is one in which a gerbil revisits an arm from which it has already taken the pellet that day.

Series [2] in a line: Brain CDP-choline levels after oral UMP in gerbils. The class given is in vivo, gerbil. To be noted: UMP 1 mmole/kg by gavage, for 30 min after administration. On the procedure: Brain tissue or cells was dissolved in methanol/chloroform (1:2 vol/vol), centrifuged, and the aqueous phase was dried under vacuum, resuspended in 100-200 μL water and separated by HPLC on an ion-exchange column (Alltech Hypersil APS-2, 5 μM, 250×4.6 mm). CDP-choline was eluted with a linear gradient of NaH2PO4 buffers A (1.75 mM NaH2PO4, pH 2.9) and B (500 mM, pH 4.5), which allowed resolution of CDP-choline from closely co-eluting substances such as UMP over 40 min. The retention time for CDP-choline was 9.5 min. Individual nucleotide peaks were detected by UV absorption at […], and were identified by comparison with the positions of authentic standards, as well as by the addition of nucleotide standards to selected samples.

The nature of series [3]: Body weight of rats on UMP-supplemented diet. In kind it is in vivo, rat. From the text:
Animals were weighed weekly to ensure that UMP-treated and untreated rats were eating equivalent amounts of food. […] Also, there was no difference in body weight between the EC and IC groups.

A short description of series [4]: Plasma uridine levels after oral UMP in healthy human subjects. In kind it is in vivo. To be noted: humans, oral UMP 500, 1000 or 2000 mg; baseline and 1, 2, 4, 8 hr. How it is done:
1-milliliter (mL) samples of heparinized plasma were spiked with 1 μg fluoro-uridine for use as an internal standard, then deproteinized by adding methanol (5 mL).
All steps were performed at 4° C. Boronate affinity columns (Affigel-601, Bio-Rad) were primed with two 5-mL ammonium acetate washes, samples were applied, and columns were washed again with ammonium acetate, after which the nucleosides were eluted with 0.1 N formic acid (7 mL). Eluates were lyophilized, then reconstituted in 100 μL water for HPLC analysis.
HPLC analysis was performed using a Beckman System Gold apparatus (Beckman Instruments) equipped with a Rainin Dynamax Microsorb C18 column (3 μm packing; 4.6×100 mm) at room temperature. The standard HPLC method is described in Lopez-Coviella et al, (J. Neurochem 65: 889-894, 1995). For modified HPLC, an isocratic elution buffer was used containing 0.004 N potassium phosphate buffer (pH 5.8) and 0.1% methanol instead of formic acid, flowing at 1 mL/min and heated to 35°.
Eight healthy subjects (5 male, 3 female, 27-67 years old) were instructed to fast overnight and given sequentially increasing doses (500, 1000, and 2000 mg) of disodium UMP (Numico, Wageningen, NL) at 7-8 AM on each of three days, separated by at least a three-day washout period. All subjects were given lunch. Blood samples were drawn over an eight-hour period into heparinized tubes. […]

Series [5] deals with Sprague Dawley rats. In words: Visible platform water maze task in EC and IC rats on UMP diet. The class given is in vivo, rat. The following applies: UMP-supplemented diet.
Excerpt: Four starting positions (north, south, east, west) were spaced around the perimeter of the tank, dividing the pool into four equal quadrants. For the visible platform version of the water maze, a white rubber ball (8 cm in diameter) was attached to the top of the submerged platform and protruded above the water surface. The platform could be used as a step to mount the ball to escape the water. A video camera was mounted directly above the water maze; this camera was linked to a computer with video tracking software to automatically record the escape latency (time to reach the platform), distance traveled (length of swim path taken to find the platform), and swim speed (HVS Image Ltd; Buckingham, UK). One week after completion of the 4-day/4 trials per day spatial training task, the rats from the above Example received 4 training sessions consisting of 4 trials (i.e., swims) per day. On each trial the animal was placed into the tank facing the wall at one of four designated start points (N, S, E, and W) and allowed to escape onto the visibly cued platform. A different starting point was used on each trial such that each starting point was used each day. In addition, the visible escape platform was placed in a different quadrant on each trial such that each of the four quadrants contained the escape platform once each day. […]
The subject of the next series is Fischer 344 rats. Nature of the series: In vivo microdialysis of striatal neurotransmitter release in aged rats on UMP diet. On the set-up: species or system rat. The following applies: for K+-evoked striatal DA release (basal = 100%): control 283±9%.
In another series the test system is Aging rats. In words: Morris water maze in aging rats on UMP diet. In kind it is in vivo, rat. To be noted: aging rats 18 months, 2.5% diet, six weeks. From the text:
Aging rats (I 8 months, 500 g) were fed a control diet or a diet containing 2.5% UMP diets for six weeks. They were then shown a hidden platform in a six-foot diameter pool of water, placed somewhere in each of the four quadrants of the pool in turn, and were allowed 90 seconds in each trial to attempt to relocate the platform by swimming, and the swimming time “mean escape latency” recorded. The set of four trials was repeated on each of four consecutive days. The platform was in the same place each day. This test, known as the Morris water maze, is an indicator of spatial memory.

The subject of series [6] is gerbils. In words: Food pellet learning assay (radial arm maze) in gerbils. The class given is in vivo, gerbil. The following applies: young adult gerbils, 0.1, 0.5 or 2.5% UMP chow, three weeks. How it is done: Male young adult gerbils fed control or UMP-containing chow (0, 0.1, 0.5 or 2.5%) ad lib for three weeks were tested in a radial arm maze, consisting of a central chamber with four branches primed with a small food pellet at the end of each. Before testing, animals were fasted overnight; each animal was then placed in the central chamber and allowed up to 180 seconds to find all of the pellets. A shorter time required to find the pellets is indicative of improved learning and spatial memory.

For series [7], the system named is Sprague Dawley rats. Nature of the series: Hidden platform water maze and probe test in EC and IC rats on UMP diet. In kind it is in vivo, rat. The following applies: for Rate of acquisition of hidden platform water maze task: 0.1% UMP-2Na+ diet 3 months. On the procedure:
(§1) Behavioral training was carried out between 10:00 AM-2:00 PM, in a blinded manner. Rats received a 4-d training session consisting of 4 trials (i.e., swims) per day to locate the hidden platform (1.5 cm below the water surface), which remained in the same position across trials for individual animals (i.e. within one of 4 quadrants). On each trial the animal was placed into the tank facing the wall at one of 4 designated start points (N, S, E, and W) and allowed to escape onto the hidden platform. A different starting point was used on each trial such that each starting point was used once each day. […] After mounting the platform, rats remained on the platform for 20 seconds. Following each trial, animals were removed from the maze and placed in a holding cage for a 30 second inter-trial interval (ITI). The latency to mount the escape platform was used as a measure of task acquisition.
(§2) On day 5, the rats were given a probe test. For this, the platform was removed and the swim path and time spent searching in the quadrant of the pool that previously contained the platform were measured over 60 s. This provides a measurement for the retention of spatial memory and indicates whether a spatial strategy was used during hidden platform training.

The subject of series [8] is rats. To be noted: EC and IC rats, choline-supplemented vs control diet. The text has this: (§3) Animals were maintained as described for Example 13. For the first experiment (FIGS. 24-26), male pups were removed at postnatal d 23, separated into small groups, and allowed to acclimatize for 1 week. Pups were assigned to either the […] or IC condition; rats were matched according to body weight at PN day 23. […] Thus rats were fed the diets and were enriched or impoverished from 30-120 d of age.
(§4) The water maze was a black circular tank 1.83 m in diameter and 0.55 m in height, filled with water (25 C) to a depth of 20 cm and located in a room containing several extramaze cues. Four starting positions (N, S, E, and W) were spaced around its perimeter, dividing the pool into 4 equal quadrants. The rectangular clear Plexiglas escape platform used for the spatial task (11×14×19 cm) was submerged at a depth of […]. For the cured version of the water maze, a white rubber ball 8 cm in diameter attached to the top of the submerged platform protruded above the water surface. The platform could be used as a step to mount the ball to escape from the water.

For series [9], the system named is rats. The following applies: IC rats. How it is done: as §1, §2, §3
For the second experiment, 4 groups of IC rats were utilized, as depicted below:
Four diets were prepared containing different amounts of CDP-choline. Mean weekly intakes were monitored for all rats, and the diets were adjusted so that rats would receive 500 mg/kg/d.
as §4

Where [10] appears, read: aged rats, UMP diet 1 week or 6 weeks vs control.
[11] abbreviates: 500 mg/kg/d for 3 mo, 4 d of training.

With `O=c1ccn([C@@H]2O[C@H](COP(=O)([O-])[O-])[C@@H](O)[C@H]2O)c(=O)[nH]1.[Na+].[Na+]` [UMP, uridine-5′-monophosphate disodium], in the series on gerbils [1], the Reference memory errors result is “reduced numbers” and the Working memory errors result was “reduced numbers”. In addition, in series [2], the “Brain CDP-choline levels” value was “rose significantly in a linear fashion”. In series [3] (Sprague Dawley EC/IC rats, 0.1% UMP-2Na+ diet, vs control groups), the Mean body weights entry is “No significant differences in mean body weights”. For the same compound, the Body weight entry in series [3] (aged Fischer 344 rats, 2.5% UMP-2Na+ diet, 0-6 weeks) is given as “neither UMP-diet (vs. control) nor UMP×time interaction affected body weight”. The Plasma uridine levels result in series [4] was “increased in response to oral UMP in a dose-dependent fashion”. For the same compound, the “Striatal-based (stimulus-response) memory, visible platform water maze” value with Sprague Dawley rats [5] is “little or no effect”. In addition, the “Basal DA levels in striatal dialysate” value in the series with Fischer 344 rats (aged rats, 2.5% UMP diet 1 or 6 weeks vs control) is “did not affect”. In the series with Fischer 344 rats (aged rats, 2.5% UMP diet 1 week, not significant), the “K+-evoked striatal DA release (basal = 100%)” value is given as 316±15%. In addition, the “K+-evoked striatal DA release (basal = 100%)” value in the series on Fischer 344 rats (aged rats, 2.5% UMP diet 6 weeks) is listed as 341±21%. Further, in the series on Fischer 344 rats (setting [10]), the “Basal DOPAC levels in striatal dialysate” value is recorded as “no effects” and the “Basal HVA levels in striatal dialysate” value is “no effects”. Also, the “Basal release of acetylcholine in corpus striatum” value with Fischer 344 rats (rats, dietary UMP) is “increase the basal release”. In addition, the “Time required to reach the platform (mean escape latency), Morris water maze” value in the series with Aging rats was “statistically significant reduction in the time required to reach the location of the platform”. For the same compound, in the series with gerbils [6], the “Time required to find the food pellets, radial arm maze” value is reported as “reduced the time required for gerbils to find the pellet in a dose-dependent manner”. Besides, the “Rate of acquisition of hidden platform water maze task” value with Sprague Dawley rats [7] (EC rats, vs EC-CONT (P<0.09)) is recorded as “acquired the task at a faster rate than EC-CONT rats”. Also, the “Rate of acquisition of hidden platform water maze task” value in the series on Sprague Dawley rats [7] (IC rats, vs IC-CONT) is recorded as “acquired the task at a significantly faster rate than did IC-CONT rats”. Moreover, the “Time in the correct quadrant, 60 s probe test” value in the series with Sprague Dawley rats [7] (IC rats, UMP diet, vs IC-CONT) was “spent significantly more time in the correct quadrant than IC-CONT rats”.

Regarding cytidine-diphosphocholine, in the series with rats [8], the “Escape latencies, visible platform task” value is recorded as “No main effects of diet”. In the series with rats [9] (500 mg/kg/d for 3 mo), the “Escape latencies of initial trials on last 3 d of spatial training” value was “restored normal behavior” and the “Swim time in target quadrant, 60-sec probe test” value is “restored normal behavior”. In the series on rats [9] (setting [11]), the “Distance traveled to find the hidden platform” value is reported as “restored normal behavior” and the “Escape latencies, hidden platform task” value is given as “exhibited normal latencies”. The “Escape latencies, hidden platform task (second experiment)” value with rats [9] (high-choline diet for 3 mon vs untreated IC rats) is recorded as “different significantly from untreated IC rats”. Moreover, the “Swim time in target quadrant, 60-sec probe test (second experiment)” value in the series with rats [9] (high-choline diets for 3 mon) is given as “swam for a significantly longer time in the target quadrant”.

The values are drawn from patent publication US20090105189A1, “METHODS AND COMPOSITIONS FOR AMELIORATING OR INHIBITING DECLINE IN MEMORY OR INTELLIGENCE OR IMPROVING SAME” (priority 2006, published 2009).
